Measured values reported in patent publication US20230295109A1, “PYRIDINONE COMPOUNDS FOR THE TREATMENT OF AUTOIMMUNE DISEASE” (F. Hoffmann-La Roche AG, priority 2020, published 2023).

What follows are compounds tested against T1, TLR9 (Homo sapiens, UniProt Q9NR96) (assay: HEK293-Blue-hTLR-9 cells assay). Details: HEK293-Blue-hTLR9 cells, ODN2006 stimulation, 20 hrs, SEAP reporter; read-out: HEK/hTLR9 IC50.
T1 sequence (Q9NR96 26-1032): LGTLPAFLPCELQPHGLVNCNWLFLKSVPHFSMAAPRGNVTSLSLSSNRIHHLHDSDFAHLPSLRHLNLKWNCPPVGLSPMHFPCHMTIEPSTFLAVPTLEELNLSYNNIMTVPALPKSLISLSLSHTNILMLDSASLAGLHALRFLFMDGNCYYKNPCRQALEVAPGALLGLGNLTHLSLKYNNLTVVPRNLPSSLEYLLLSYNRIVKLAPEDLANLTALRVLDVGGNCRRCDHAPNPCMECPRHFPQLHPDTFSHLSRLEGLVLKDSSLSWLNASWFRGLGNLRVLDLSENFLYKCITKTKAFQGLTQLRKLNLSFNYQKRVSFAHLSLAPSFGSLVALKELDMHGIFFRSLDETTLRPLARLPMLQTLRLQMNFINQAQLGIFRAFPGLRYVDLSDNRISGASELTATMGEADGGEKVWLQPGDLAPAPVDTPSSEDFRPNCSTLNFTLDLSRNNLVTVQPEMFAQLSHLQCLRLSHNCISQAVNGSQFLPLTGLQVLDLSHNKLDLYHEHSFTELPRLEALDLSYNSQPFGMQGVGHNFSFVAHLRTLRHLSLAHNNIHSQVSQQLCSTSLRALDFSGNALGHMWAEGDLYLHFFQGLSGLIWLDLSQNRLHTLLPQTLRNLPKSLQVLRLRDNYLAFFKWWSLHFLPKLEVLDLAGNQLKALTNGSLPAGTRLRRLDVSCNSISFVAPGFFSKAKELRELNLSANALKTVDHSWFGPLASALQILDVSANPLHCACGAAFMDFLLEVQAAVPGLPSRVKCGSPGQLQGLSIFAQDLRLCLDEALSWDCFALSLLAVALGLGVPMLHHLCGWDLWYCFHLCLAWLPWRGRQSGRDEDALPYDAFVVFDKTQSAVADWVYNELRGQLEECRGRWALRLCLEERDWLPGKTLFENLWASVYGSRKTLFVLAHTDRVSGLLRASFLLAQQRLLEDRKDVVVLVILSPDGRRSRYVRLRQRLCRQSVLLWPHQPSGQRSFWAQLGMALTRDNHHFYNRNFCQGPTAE
Type: cell-based
Set-up: host or cells: HEK293 (HEK-Blue hTLR9)
Description: A stable HEK293-Blue-hTLR-9 cell line was purchased from InvivoGen (Cat.#: hkb-htlr9, San Diego, California, USA). These cells were originally designed for studying the stimulation of human TLR9 by monitoring the activation of NF-κB. A SEAP (secreted embryonic alkaline phosphatase) reporter gene was placed under the control of the IFN-β minimal promoter fused to five NF-κB and AP-1-binding sites. The SEAP was induced by activating NF-κB and AP-1 via stimulating HEK-Blue hTLR9 cells with TLR9 ligands. Therefore the reporter expression was declined by TLR9 antagonist under the stimulation of a ligand, such as ODN2006 (Cat.#: tlrl-2006-1, Invivogen, San Diego, California, USA), for incubation of 20 hrs. The cell culture supernatant SEAP reporter activity was determined using QUANTI-Blue™ kit (Cat.#: rep-qb1, Invivogen, San Diego, California, USA) at a wavelength of 640 nm, a detection medium that turns purple or blue in the presence of alkaline phosphatase.
HEK293-Blue-hTLR9 cells were incubated at a density of 250,000~450,000 cells/mL in a volume of 170 µL in a 96-well plate in Dulbecco’s Modified Eagle’s medium (DMEM) containing 4.5 g/L glucose, 50 U/mL penicillin, […], […], 2 mM L-glutamine, 10% (v/v) heat-inactivated fetal bovine serum with addition of 20 µL test compound in a serial dilution in the presence of final DMSO at 1% and 10 µL of 20uM ODN2006 in above DMEM, perform incubation under 37° C. in a CO2 incubator for 20 hrs. Then 20 µL of the supernatant from each well was incubated with 180 µL Quanti-blue substrate solution at 37° C. for 2 h and the absorbance was read at 620 \~655 nm using a spectrophotometer. The signaling pathway that TLR9 activation leads to downstream NF-κB activation has been widely accepted, and therefore similar reporter assay was modified for evaluating TLR9 antagonist.

**Q.** For `CCc1nc(N2CCN3CCN(c4cnc(N5CC6(CNCCO6)C5)nc4)CC3C2)ccc1-c1cc(C)c(=O)n(C)c1` (stereo not shown) [Example 19, 5-[2-ethyl-6-[2-[2-(5-oxa-2,8-diazaspiro[3.5]nonan-2-yl)pyrimidin-5-yl]-3,4,6,7,9,9a-hexahydro-1H-pyrazino[1,2-a]pyrazin-8-yl]-3-pyridyl]-1,3-dimethyl-pyridin-2-one], which IC50 is on record?
**A.** The IC50 was 833 nM.

**Q.** How did the IC50 turn out when `Cc1cc(-c2ccc(N3CCN(Cc4ccc(N5CCNCC5)cn4)CC3)nc2C(C)C)cn(C)c1=O` [Example 7, 5-[2-isopropyl-6-[4-[(5-piperazin-1-yl-2-pyridyl)methyl]piperazin-1-yl]-3-pyridyl]-1,3-dimethyl-pyridin-2-one] was run?
**A.** Its IC50 is 143 nM.

**Q.** `Cc1cc(-c2ccc(N3CCN(Cc4ccc(N5CCNCC5)nc4)CC3)nc2C(C)C)cn(C)c1=O` [Example 11, 5-[2-isopropyl-6-[4-[(6-piperazin-1-yl-3-pyridyl)methyl]piperazin-1-yl]-3-pyridyl]-1,3-dimethyl-pyridin-2-one] was tested. Which IC50 did it give?
**A.** Its IC50 is 136 nM.

**Q.** For `Cc1cc(-c2ccc(N3CCN(c4ccc5c(n4)CCNC5)CC3)nc2C(C)C)cn(C)c1=O` [Example 15, 5-[2-isopropyl-6-[4-(5,6,7,8-tetrahydro-1,6-naphthyridin-2-yl)piperazin-1-yl]-3-pyridyl]-1,3-dimethyl-pyridin-2-one], which IC50 is on record?
**A.** Its IC50 is 803 nM.

**Q.** Which IC50 does the source give for `Cc1cc(-c2ccc(N3CCN(Cc4ccc(N5CCNCC5)cc4)CC3)nc2C(C)C)cn(C)c1=O` [Example 13, 5-[2-isopropyl-6-[4-[(4-piperazin-1-ylphenyl)methyl]piperazin-1-yl]-3-pyridyl]-1,3-dimethyl-pyridin-2-one] here?
**A.** Its IC50 is 111 nM.

**Q.** Which IC50 does the source give for `CCc1nc(N2CCN(Cc3ccc(N4CCNCC4)cc3)CC2)ccc1-c1cc(C)c(=O)n(C)c1` [Example 5, 5-[2-ethyl-6-[4-[(4-piperazin-1-ylphenyl)methyl]piperazin-1-yl]-3-pyridyl]-1,3-dimethyl-pyridin-2-one] here?
**A.** The IC50 was 54 nM.

**Q.** With `CCc1nc(N2CCN(Cc3cnc(N4CC5(CNCCO5)C4)nc3)CC2)ccc1-c1cc(C)c(=O)n(C)c1` [Example 1, 5-[2-ethyl-6-[4-[[2-(5-oxa-2,8-diazaspiro[3.5]nonan-2-yl)pyrimidin-5-yl]methyl]piperazin-1-yl]-3-pyridyl]-1,3-dimethyl-pyridin-2-one] as the compound, how does the IC50 read?
**A.** The IC50 was 700 nM.

**Q.** How did the IC50 turn out when `Cc1cc(-c2ccc(N3CCN(Cc4ncc(N5CCNCC5)cn4)CC3)nc2C(C)C)cn(C)c1=O` [Example 12, 5-[2-isopropyl-6-[4-[(5-piperazin-1-ylpyrimidin-2-yl)methyl]piperazin-1-yl]-3-pyridyl]-1,3-dimethyl-pyridin-2-one] was run?
**A.** Its IC50 is 763 nM.

**Q.** How did the IC50 turn out when `Cc1cc(-c2ccc(N3CCN(Cc4cnc(N5CC(C)(N)C5)nc4)CC3)nc2C(C)C)cn(C)c1=O` [Example 10, 5-[6-[4-[[2-(3-amino-3-methyl-azetidin-1-yl)pyrimidin-5-yl]methyl]piperazin-1-yl]-2-isopropyl-3-pyridyl]-1,3-dimethyl-pyridin-2-one] was run?
**A.** Its IC50 is 139 nM.

**Q.** Which IC50 does the source give for `CCc1nc(N2CCN(Cc3ccc(N4CC5(CNCCO5)C4)nc3)CC2)ccc1-c1cc(C)c(=O)n(C)c1` [Example 2, 5-[2-ethyl-6-[4-[[6-(5-oxa-2,8-diazaspiro[3.5]nonan-2-yl)-3 pyridyl]methyl]piperazin-1-yl]-3-pyridyl]-1,3-dimethyl-pyridin-2-one] here?
**A.** The IC50 was 212 nM.

**Q.** With `CCc1nc(N2CCN(Cc3cnc(N4CC(C)(N)C4)nc3)CC2)ccc1-c1cc(C)c(=O)n(C)c1` [Example 3, 5-[6-[4-[[2-(3-amino-3-methyl-azetidin-1-yl)pyrimidin-5-yl]methyl]piperazin-1-yl]-2-ethyl-3-pyridyl]-1,3-dimethyl-pyridin-2-one] as the compound, how does the IC50 read?
**A.** Its IC50 is 621 nM.

**Q.** How did the IC50 turn out when `CCc1nc(N2CCN(Cc3cnc(N4CCOC[C@@H](N)C4)nc3)CC2)ccc1-c1cc(C)c(=O)n(C)c1` [Example 4, 5-[6-[4-[[2-[(6S)-6-amino-1,4-oxazepan-4-yl]pyrimidin-5-yl]methyl]piperazin-1-yl]-2-ethyl-3-pyridyl]-1,3-dimethyl-pyridin-2-one] was run?
**A.** The IC50 was 318 nM.

**Q.** How did the IC50 turn out when `Cc1cc(-c2ccc(N3CCN(Cc4ccc(N5CCNCC5)cc4)CC3)nc2C(F)F)cn(C)c1=O` [Example 17, 5-[2-(difluoromethyl)-6-[4-[(4-piperazin-1-ylphenyl)methyl]piperazin-1-yl]-3-pyridyl]-1,3-dimethyl-pyridin-2-one] was run?
**A.** The IC50 was 68 nM.

**Q.** Which IC50 does the source give for `Cc1cc(-c2ccc(N3CCN(Cc4cnc(N5CCNCC5)cn4)CC3)nc2C(C)C)cn(C)c1=O` [Example 8, 5-[2-isopropyl-6-[4-[(5-piperazin-1-ylpyrazin-2-yl)methyl]piperazin-1-yl]-3-pyridyl]-1,3-dimethyl-pyridin-2-one] here?
**A.** The IC50 was 176 nM.

**Q.** Which IC50 does the source give for `Cc1cc(-c2ccc(N3CCN4CCN(c5ccc(N6CCNCC6)nc5)CC4C3)nc2C(C)C)cn(C)c1=O` (stereo not shown) [Example 16, 5-[2-isopropyl-6-[8-(6-piperazin-1-yl-3-pyridyl)-3,4,6,7,9,9a-hexahydro-1H-pyrazino[1,2-a]pyrazin-2-yl]-3-pyridyl]-1,3-dimethyl-pyridin-2-one] here?
**A.** Its IC50 is 324 nM.

**Q.** With `Cc1cc(-c2ccc(N3CCN(Cc4cnc(N5CCNCC5)nc4)CC3)nc2C(C)C)cn(C)c1=O` [Example 9, 5-[2-isopropyl-6-[4-[(2-piperazin-1-ylpyrimidin-5-yl)methyl]piperazin-1-yl]-3-pyridyl]-1,3-dimethyl-pyridin-2-one] as the compound, how does the IC50 read?
**A.** Its IC50 is 183 nM.

**Q.** How did the IC50 turn out when `Cc1cc(-c2ccc(N3CCC(N4CCNCC4)CC3)nc2C(C)C)cn(C)c1=O` [Example 18, 5-[2-isopropyl-6-(4-piperazin-1-yl-1-piperidyl)-3-pyridyl]-1,3-dimethyl-pyridin-2-one] was run?
**A.** Its IC50 is 798 nM.

**Q.** `Cc1cc(-c2ccc(N3CCN(Cc4cccc(N5CCNCC5)c4)CC3)nc2C(C)C)cn(C)c1=O` [Example 14, 5-[2-isopropyl-6-[4-[(3-piperazin-1-ylphenyl)methyl]piperazin-1-yl]-3-pyridyl]-1,3-dimethyl-pyridin-2-one] was tested. Which IC50 did it give?
**A.** Its IC50 is 143 nM.

**Q.** How did the IC50 turn out when `Cc1cc(-c2ccc(N3CCN(Cc4cnc(N5CC6(CNCCO6)C5)nc4)CC3)nc2C(C)C)cn(C)c1=O` [Example 6, 5-[2-isopropyl-6-[4-[[2-(5-oxa-2,8-diazaspiro[3.5]nonan-2-yl)pyrimidin-5-yl]methyl]piperazin-1-yl]-3-pyridyl]-1,3-dimethyl-pyridin-2-one] was run?
**A.** Its IC50 is 198 nM.
